Reference: ChEMBL document CHEMBL3600362, “Synthesis of CNS active thyrotropin-releasing hormone (TRH)-like peptides: Biological evaluation and effect on cognitive impairment induced by cerebral ischemia in mice” (Bioorg Med Chem, 2015)
Calls of active or inactive are those of the source. The calls are words filed in the database; no cut-off is given here.

What was measured:
HEK293 = assay: Selectivity index, ratio of EC50 for agonist activity at mouse TRH-R1 expressed in HEK293 cells to EC50 for agonist activity at mouse TRH-R2 expressed in HEK293 cells; format: cell-based
[1] = molecular target: T1, Thyrotropin-releasing hormone receptor (Mus musculus, UniProt P21761); assay: Displacement of [3H]-1-MeHis-TRH from mouse TRH-R1 expressed in HEK293 cells incubated up to 4 hrs by scintillation counting method; format: cell-based
T1 sequence (P21761 whole entry): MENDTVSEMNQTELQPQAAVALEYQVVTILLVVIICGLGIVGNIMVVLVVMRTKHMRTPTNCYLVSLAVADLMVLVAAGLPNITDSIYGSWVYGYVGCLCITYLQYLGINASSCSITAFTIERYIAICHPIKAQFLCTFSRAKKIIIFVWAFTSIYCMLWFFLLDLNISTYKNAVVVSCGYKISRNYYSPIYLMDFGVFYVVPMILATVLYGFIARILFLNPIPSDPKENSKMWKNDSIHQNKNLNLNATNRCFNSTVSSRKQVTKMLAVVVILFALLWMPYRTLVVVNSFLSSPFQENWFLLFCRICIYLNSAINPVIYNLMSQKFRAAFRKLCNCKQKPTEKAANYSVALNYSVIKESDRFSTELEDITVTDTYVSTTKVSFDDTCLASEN

Mus musculus = assay: Reduction in pentobarbital-induced sleeping time in Swiss mouse at 10 umol/kg, iv; format: functional
[2] = molecular target: T2, Thyrotropin-releasing hormone receptor 2 (Mus musculus, UniProt Q9ERT1); assay: Displacement of [3H]-1-MeHis-TRH from mouse TRH-R2 expressed in HEK293 cells incubated up to 4 hrs by scintillation counting method; format: cell-based
T2 sequence (Q9ERT1 whole entry): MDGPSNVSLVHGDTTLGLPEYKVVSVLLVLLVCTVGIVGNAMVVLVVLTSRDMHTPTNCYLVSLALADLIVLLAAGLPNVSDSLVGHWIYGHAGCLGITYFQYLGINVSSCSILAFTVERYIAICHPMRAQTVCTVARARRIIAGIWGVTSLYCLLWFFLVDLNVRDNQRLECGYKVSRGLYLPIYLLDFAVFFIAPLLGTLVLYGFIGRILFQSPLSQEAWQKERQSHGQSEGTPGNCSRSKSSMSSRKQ

[3] = molecular target: T2, Thyrotropin-releasing hormone receptor 2; assay: Agonist activity at mouse TRH-R2 expressed in HEK293 cells assessed as induction of changes in intracellular Ca2+ level by FLIPR method; format: functional, cell-based
[4] = molecular target: T1, Thyrotropin-releasing hormone receptor; assay: Agonist activity at mouse TRH-R1 expressed in HEK293 cells assessed as induction of changes in intracellular Ca2+ level by FLIPR method; format: functional, cell-based
TRH-degrading ectoenzyme = molecular target: T3, TRH-degrading ectoenzyme (Mus musculus, UniProt Q8K093); assay: Stability assessed as mouse recombinant TRH-degrading ectoenzyme-mediated compound degradation at 1 mM measured within 18 hrs by HPLC method; format: ADME; details: read-out: Drug degradation
T3 sequence (Q8K093 whole entry): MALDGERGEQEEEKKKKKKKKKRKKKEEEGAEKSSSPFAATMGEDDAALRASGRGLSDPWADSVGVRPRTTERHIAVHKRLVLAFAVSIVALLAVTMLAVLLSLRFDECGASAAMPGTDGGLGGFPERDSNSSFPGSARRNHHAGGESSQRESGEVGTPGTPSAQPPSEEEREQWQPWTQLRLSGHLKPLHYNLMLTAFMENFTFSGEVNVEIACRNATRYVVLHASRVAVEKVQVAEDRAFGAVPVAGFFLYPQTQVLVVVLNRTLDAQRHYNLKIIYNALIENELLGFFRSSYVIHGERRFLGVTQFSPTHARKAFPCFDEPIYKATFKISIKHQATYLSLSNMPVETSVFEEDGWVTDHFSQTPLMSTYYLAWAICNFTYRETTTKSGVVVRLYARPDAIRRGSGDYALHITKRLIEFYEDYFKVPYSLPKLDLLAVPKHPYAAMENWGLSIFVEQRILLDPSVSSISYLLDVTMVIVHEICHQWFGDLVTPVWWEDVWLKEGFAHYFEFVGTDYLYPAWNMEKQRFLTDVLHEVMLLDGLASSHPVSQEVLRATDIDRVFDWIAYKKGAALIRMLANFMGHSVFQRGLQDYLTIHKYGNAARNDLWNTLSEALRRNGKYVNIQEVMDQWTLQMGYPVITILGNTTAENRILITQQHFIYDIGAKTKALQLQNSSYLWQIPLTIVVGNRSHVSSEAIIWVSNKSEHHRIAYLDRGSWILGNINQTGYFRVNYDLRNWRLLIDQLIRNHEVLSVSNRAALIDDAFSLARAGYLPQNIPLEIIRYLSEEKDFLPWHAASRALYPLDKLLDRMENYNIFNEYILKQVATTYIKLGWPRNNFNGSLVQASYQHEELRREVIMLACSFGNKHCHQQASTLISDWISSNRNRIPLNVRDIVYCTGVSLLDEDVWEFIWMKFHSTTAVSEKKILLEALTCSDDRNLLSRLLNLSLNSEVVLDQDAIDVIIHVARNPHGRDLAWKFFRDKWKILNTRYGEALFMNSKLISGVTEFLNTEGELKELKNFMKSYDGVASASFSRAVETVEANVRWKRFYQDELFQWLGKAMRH

[5] = Half life in human plasma; format: ADME, cell-free
Rattus norvegicus [6] = assay: Inhibition of lipid peroxidation in brain homogenates of Sprague-Dawley rat model of 2 hrs MCA occlusion-induced focal cerebral ischemia assessed as reduction in MDA levels at 10 umol/kg, iv administered immediately after reperfusion and measured 22 hrs after reperfusion by TBARS assay; format: functional, organism-based
Rattus norvegicus [7] = assay: Neuroprotective activity in Sprague-Dawley rat model of MCA occlusion-induced memory impairment assessed as minimum latency time during acquisition trial at 10 umol/kg, iv by passive avoidance test (reference value: 49 secs); format: functional
Rattus norvegicus [8] = assay: Reduction in cognitive impairment in Sprague-Dawley rat assessed as increase in number of entries to platform zone during retention trial at 10 umol/kg, iv measured on day 6 by Morris water maze test (reference value: 0.5); format: functional
Rattus norvegicus [9] = assay: Effect on mean latency time during acquisition trial in Sprague-Dawley rat model of MCA occlusion-induced memory impairment at 10 umol/kg, iv by passive avoidance test; format: ADME, organism-based; details: in vivo
Rattus norvegicus [10] = assay: Reduction in volume of infarction in Sprague-Dawley rat model of MCA occlusion-induced focal cerebral ischemia assessed as infarcts volume at 10 umol/kg, iv administered immediately after reperfusion and measured 22 hrs after reperfusion (reference value: 237.69 +/- 4.08 mm3); format: functional
Rattus norvegicus [11] = assay: Effect on mean latency time during retention trial in Sprague-Dawley rat model of MCA occlusion-induced memory impairment at 10 umol/kg, iv by passive avoidance test; format: functional, organism-based
[12] = molecular target: T4, Thyrotropin-releasing hormone-degrading ectoenzyme (Mus musculus, UniProt Q8K093); assay: Stability assessed as mouse recombinant TRH-degrading ectoenzyme-mediated compound degradation up to 18 hrs by HPLC method; format: ADME
T4 sequence (Q8K093 whole entry): T3 sequence (Q8K093 whole entry)

Rattus norvegicus [13] = assay: Reduction in neurological score in Sprague-Dawley rat model of MCA occlusion-induced focal cerebral ischemia at 10 umol/kg, iv administered immediately after reperfusion and measured 22 hrs after reperfusion up to 7 days; format: functional, organism-based
Rattus norvegicus [14] = assay: Neuroprotective activity in Sprague-Dawley rat model of MCA occlusion-induced memory impairment assessed as maximum latency time during acquisition trial at 10 umol/kg, iv by passive avoidance test (reference value: 49 secs); format: functional
Rattus norvegicus [15] = assay: Reduction in cognitive impairment in Sprague-Dawley rat assessed as reduction in latency to first entry to platform zone during retention trial at 10 umol/kg, iv measured on day 6 by Morris water maze test (reference value: 95.76 secs); format: functional
Rattus norvegicus [16] = assay: Increase in neuronal survival in Sprague-Dawley rat model of MCA occlusion-induced focal cerebral ischemia assessed as increase in neuronal density at hippocampal CA1 regions at 10 umol/kg, iv by Cresyl violet staining based microscopy; format: functional, organism-based

Compound	Ratio EC50 (HEK293)	IC50 [1] [µM]	inhibition in vivo at 10 µmol/kg (Mus musculus) [%]	IC50 [2] [µM]	EC50 [3] [µM]	EC50 [4] [µM]	other results
NC(=O)[C@@H]1CCCN1C(=O)[C@H](Cc1nc[nH]c1Br)NC(=O)c1nccnc1N	47.8	> 50	29.5	> 50	0.006	0.287	
NC(=O)[C@@H]1CCCN1C(=O)[C@H](Cc1cnc[nH]1)NC(=O)[C@@H]1CCC(=O)N1 [PROTIRELIN]		0.0026		0.007	0.00052		metabolised at 18 h, 1000 µM (TRH-degrading ectoenzyme): 80%; half-life [5]: 2 min
CCCc1nc(C[C@H](NC(=O)c2nccnc2N)C(=O)N2CCC[C@H]2C(N)=O)c[nH]1	10.5	> 50	52.2	> 50	0.12	1.56	
NC(=O)[C@@H]1CCCN1C(=O)[C@H](Cc1nc(I)[nH]c1I)NC(=O)c1cnccn1	36.3	> 50	1.5	> 50	0.31	11.3	
CCCc1nc(C[C@H](NC(=O)c2cnccn2)C(=O)N2CCC[C@H]2C(N)=O)c[nH]1	2.5	> 50	63.6	> 50	0.06	0.15	
CCCc1nc(C[C@H](NC(=O)C2CCCCN2)C(=O)N2CCC[C@H]2C(N)=O)c[nH]1 (single isomer, unassigned)	235	> 50	67.4	> 50	0.004	0.94	
Cc1cnc(C(=O)N[C@@H](Cc2nc[nH]c2Br)C(=O)N2CCC[C@H]2C(N)=O)cn1	12.4	> 50	23.2	> 50	0.04	0.498	
Cc1cnc(C(=O)N[C@@H](Cc2nc(I)n(Cc3ccccc3)c2I)C(=O)N2CCC[C@H]2C(N)=O)cn1	14.8	> 50	50.1	> 50	0.05	0.74	
CC(C)c1nc(C[C@H](NC(=O)C2CCCCN2)C(=O)N2CCC[C@H]2C(N)=O)c[nH]1 (single isomer, unassigned)	1.3	> 50	42.7	> 50	0.77	1	
NC(=O)[C@@H]1CCCN1C(=O)[C@H](Cc1nc(Br)[nH]c1Br)NC(=O)c1nccnc1N	4.8	> 50	12.2	> 50	0.29	1.41	
NC(=O)[C@@H]1CCCN1C(=O)[C@H](Cc1nc(Br)[nH]c1Br)NC(=O)c1cnccn1	50.8	> 50	74.8	> 50	0.05	2.54	Activity (Rattus norvegicus [6]): Active; Time (Rattus norvegicus [7]): 96 s; Activity (Rattus norvegicus [8]): 2.25; Activity (Rattus norvegicus [9]): Non-toxic; Activity (Rattus norvegicus [10]): 196.08 mm3; Activity (Rattus norvegicus [11]): Active; Stability [12]: Stable; Activity (Rattus norvegicus [13]): Active; Time (Rattus norvegicus [14]): 167 s; Time (Rattus norvegicus [15]): 36.31 s; Activity (Rattus norvegicus [16]): Active
Cn1cnc(C[C@H](NC(=O)c2cnccn2)C(=O)N2CCC[C@H]2C(N)=O)c1Br	11.3	> 50	32.3	> 50	0.03	0.34	
NC(=O)[C@@H]1CCCN1C(=O)[C@H](Cc1nc[nH]c1Cl)NC(=O)c1cnccn1	36.5	> 50	29.8	> 50	0.53	19.3	
NC(=O)[C@@H]1CCCN1C(=O)[C@H](Cc1c[nH]cn1)NC(=O)[C@@H]1CCC(=O)N1 [PROTIRELIN]	1.9		51.1				EC50 ([4]; hek293): 0.001 µM
CCCc1nc(C[C@H](NC(=O)c2cnc(C)cn2)C(=O)N2CCC[C@H]2C(N)=O)c[nH]1	1.1	> 50	4.1	> 50	0.015	0.017	
CCn1c(I)nc(C[C@H](NC(=O)c2cnccn2)C(=O)N2CCC[C@H]2C(N)=O)c1I	7.5	> 50	1.8	> 50	0.96	7.21	
Cc1cnc(C(=O)N[C@@H](Cc2nc(Br)[nH]c2Br)C(=O)N2CCC[C@H]2C(N)=O)cn1	0.77	> 50	29	> 50	0.1	0.077	
NC(=O)[C@@H]1CCCN1C(=O)[C@H](Cc1nc(I)n(Cc2ccccc2)c1I)NC(=O)c1cnccn1	32.6	> 50	74.8	> 50	0.03	0.98	
NC(=O)[C@@H]1CCCN1C(=O)[C@H](Cc1nc[nH]c1Br)NC(=O)c1cnccn1	82.9	> 50	32.8	> 50	0.048	3.98	
